Data taken from ChEMBL document CHEMBL3272271, “Folate antagonists. 13. 2,4-Diamino-6-](alpha,alpha,alpha-trifluoro-m-tolyl)thio]quinazoline and related 2,4-diamino-6-[(phenyl- and naphthyl)thio]quinazolines, a unique class of antimetabolites with extraordinary antimalarial and antibacterial effects” (J Med Chem, 1978).
≈ marks a conversion by molar mass, not a printed value. Calls of active or inactive are those of the source. The rule behind the calls is not given here.

Assays:
[1] = tested on: Plasmodium gallinaceum; test: Antimalarial activity against sporozoite-induced Plasmodium gallinaceum infected in white leghorn chicken assessed as disease cure from parasite infection at 7.5 mg/kg, sc administered 72 hrs after infection; format: functional, organism-based; parameters: dose 7.5 mg/kg
[2] = tested on: Plasmodium gallinaceum; test: Antimalarial activity against sporozoite-induced Plasmodium gallinaceum infected in white leghorn chicken assessed as disease cure from parasite infection at 15 mg/kg, sc administered 72 hrs after infection; format: functional, organism-based; parameters: dose 15 mg/kg
[3] = tested on: Plasmodium gallinaceum; test: Antimalarial activity against trophozoite-induced Plasmodium gallinaceum infected in white leghorn chicken assessed as disease cure from parasite infection at 160 mg/kg, sc administered 72 hrs after infection; format: functional, organism-based; parameters: dose 160 mg/kg
[4] = tested on: Plasmodium berghei; test: Antimalarial activity against Plasmodium berghei infected in mouse assessed as disease cure from parasite infection at 160 mg/kg, sc administered 72 hrs after infection; format: functional, organism-based; parameters: dose 160 mg/kg
[5] = tested on: Plasmodium berghei; test: Antimalarial activity against Plasmodium berghei infected in mouse assessed as disease cure from parasite infection at 640 mg/kg, sc administered 72 hrs after infection; format: functional, organism-based; parameters: dose 640 mg/kg
[6] = tested on: Plasmodium berghei; test: Antimalarial activity against Plasmodium berghei infected in mouse assessed as disease cure from parasite infection at 320 mg/kg, sc administered 72 hrs after infection; format: functional, organism-based; parameters: dose 320 mg/kg
[7] = tested on: Plasmodium gallinaceum; test: Antimalarial activity against sporozoite-induced Plasmodium gallinaceum infected in white leghorn chicken assessed as disease cure from parasite infection at 30 mg/kg, sc administered 72 hrs after infection; format: functional, organism-based; parameters: dose 30 mg/kg
[8] = tested on: Plasmodium gallinaceum; test: Antimalarial activity against sporozoite-induced Plasmodium gallinaceum infected in white leghorn chicken assessed as disease cure from parasite infection at 240 mg/kg, sc administered 72 hrs after infection; format: functional, organism-based; parameters: dose 240 mg/kg
[9] = tested on: Plasmodium gallinaceum; test: Antimalarial activity against trophozoite-induced Plasmodium gallinaceum infected in white leghorn chicken assessed as disease cure from parasite infection at 80 mg/kg, sc administered 72 hrs after infection; format: functional, organism-based; parameters: dose 80 mg/kg
[10] = tested on: Plasmodium gallinaceum; test: Antimalarial activity against trophozoite-induced Plasmodium gallinaceum infected in white leghorn chicken assessed as disease cure from parasite infection at 320 mg/kg, sc administered 72 hrs after infection; format: functional, organism-based; parameters: dose 320 mg/kg
[11] = tested on: Plasmodium gallinaceum; test: Antimalarial activity against sporozoite-induced Plasmodium gallinaceum infected in white leghorn chicken assessed as disease cure from parasite infection at 60 mg/kg, sc administered 72 hrs after infection; format: functional, organism-based; parameters: dose 60 mg/kg
[12] = tested on: Plasmodium gallinaceum; test: Antimalarial activity against trophozoite-induced Plasmodium gallinaceum infected in white leghorn chicken assessed as disease cure from parasite infection at 40 mg/kg, sc administered 72 hrs after infection; format: functional, organism-based; parameters: dose 40 mg/kg
[13] = tested on: Plasmodium gallinaceum; test: Antimalarial activity against sporozoite-induced Plasmodium gallinaceum infected in white leghorn chicken assessed as disease cure from parasite infection at 120 mg/kg, sc administered 72 hrs after infection; format: functional, organism-based; parameters: dose 120 mg/kg
[14] = tested on: Plasmodium gallinaceum; test: Antimalarial activity against sporozoite-induced Plasmodium gallinaceum infected in white leghorn chicken assessed as disease cure from parasite infection at 480 mg/kg, sc administered 72 hrs after infection; format: functional, organism-based; parameters: dose 480 mg/kg
[15] = tested on: Plasmodium berghei; test: Antimalarial activity against trophozoite-induced Plasmodium berghei infected in mouse assessed as daily dose required to suppression of 90% parasite infection administered with diet for 6 days; format: functional
[16] = tested on: Shigella sonnei; test: Antibacterial activity against Shigella sonnei C-10 by gradient plate test; format: functional
[17] = tested on: Plasmodium berghei; test: Antimalarial activity against Plasmodium berghei infected in mouse assessed as increase in mean survival days of host at 2.5 mg/kg, sc administered 72 hrs after infection relative to control; format: functional; conditions: route subcutaneous
[18] = tested on: Staphylococcus aureus; test: Antibacterial activity against Staphylococcus aureus UC-96 by gradient plate test; format: functional
[19] = tested on: Plasmodium berghei; test: Ratio of quinine hydrochloride SD90 to compound SD90 for trophozoite-induced Plasmodium berghei infected in mouse assessed as daily dose required to suppression of 90% parasite infection administered with diet for 6 days; format: functional
[20] = tested on: Plasmodium berghei; test: Antimalarial activity against Plasmodium berghei infected in mouse assessed as increase in mean survival days of host at 80 mg/kg, sc administered 72 hrs after infection relative to control; format: functional; conditions: route subcutaneous
[21] = tested on: Plasmodium gallinaceum; test: Antimalarial activity against sporozoite-induced Plasmodium gallinaceum infected in white leghorn chicken assessed as disease cure from parasite infection at 80 mg/kg, sc administered 72 hrs after infection; format: functional, organism-based; parameters: dose 80 mg/kg
[22] = tested on: Plasmodium berghei; test: Antimalarial activity against Plasmodium berghei infected in mouse assessed as increase in mean survival days of host at 10 mg/kg, sc administered 72 hrs after infection relative to control; format: functional; conditions: route subcutaneous
[23] = tested on: Plasmodium berghei; test: Antimalarial activity against Plasmodium berghei infected in mouse assessed as increase in mean survival days of host at 20 mg/kg, sc administered 72 hrs after infection relative to control; format: functional; conditions: route subcutaneous
[24] = tested on: Plasmodium berghei; test: Antimalarial activity against cycloguanil-resistant Plasmodium berghei assessed as drug resistance; format: functional, organism-based
[25] = tested on: Plasmodium berghei; test: Antimalarial activity against Plasmodium berghei infected in mouse assessed as increase in mean survival days of host at 40 mg/kg, sc administered 72 hrs after infection relative to control; format: functional; conditions: route subcutaneous
[26] = tested on: Plasmodium gallinaceum; test: Antimalarial activity against sporozoite-induced Plasmodium gallinaceum infected in white leghorn chicken assessed as increase in mean survival days of host at 80 mg/kg, sc administered 72 hrs after infection relative to control; format: functional; conditions: route subcutaneous
[27] = tested on: Plasmodium gallinaceum; test: Antimalarial activity against trophozoite-induced Plasmodium gallinaceum infected in white leghorn chicken assessed as increase in mean survival days of host at 160 mg/kg, sc administered 72 hrs after infection relative to control; format: functional; conditions: route subcutaneous
[28] = tested on: Plasmodium gallinaceum; test: Antimalarial activity against sporozoite-induced Plasmodium gallinaceum infected in white leghorn chicken assessed as disease cure from parasite infection at 320 mg/kg, sc administered 72 hrs after infection; format: functional, organism-based; parameters: dose 320 mg/kg
[29] = tested on: Plasmodium falciparum; test: Antimalarial activity against pyrimethamine-sensitive Plasmodium falciparum Vietnam Oak Knoll infected in Aotus trivirgatus owl monkey model assessed as cure from parasite infection at 0.6 mg/kg, po qd for 7 days relative to control; format: functional
[30] = tested on: Plasmodium gallinaceum; test: Antimalarial activity against trophozoite-induced Plasmodium gallinaceum infected in white leghorn chicken assessed as increase in mean survival days of host at 80 mg/kg, sc administered 72 hrs after infection relative to control; format: functional; conditions: route subcutaneous
[31] = tested on: Plasmodium berghei; test: Antimalarial activity against Plasmodium berghei infected in mouse assessed as disease cure from parasite infection at 80 mg/kg, sc administered 72 hrs after infection; format: functional, organism-based; parameters: dose 80 mg/kg
[32] = tested on: Plasmodium falciparum; test: Antimalarial activity against chloroquine-susceptible, pyrimethamine-resistant Plasmodium falciparum Malayan Camp infected in Aotus trivirgatus owl monkey model assessed as cure from parasite infection at 0.39 to 5 mg/kg, po qd for 7 days relative to control; format: functional; conditions: dose mg/kg 0.39-5
[33] = tested on: Staphylococcus aureus; test: Antibacterial activity against drug-resistant Staphylococcus aureus S18713 by gradient plate test; format: functional
[34] = tested on: Plasmodium berghei; test: Antimalarial activity against Plasmodium berghei infected in mouse assessed as disease cure from parasite infection at 40 mg/kg, sc administered 72 hrs after infection; format: functional, organism-based; parameters: dose 40 mg/kg
[35] = tested on: Plasmodium berghei; test: Antimalarial activity against Plasmodium berghei infected in mouse assessed as increase in mean survival days of host at 5 mg/kg, sc administered 72 hrs after infection relative to control; format: functional; conditions: route subcutaneous
[36] = tested on: Escherichia coli; test: Antibacterial activity against Escherichia coli Vogel by gradient plate test; format: functional
[37] = tested on: Enterococcus faecalis; test: Antibacterial activity against Streptococcus faecalis MGH-2 by gradient plate test; format: functional
[38] = tested on: Plasmodium falciparum; test: Antimalarial activity against chloroquine-susceptible, pyrimethamine-resistant Plasmodium falciparum Malayan Camp infected in Aotus trivirgatus owl monkey model assessed as cure from parasite infection at >2.5 mg/kg, po qd for 7 days relative to control; format: functional
[39] = tested on: Pseudomonas aeruginosa; test: Antibacterial activity against Pseudomonas aeruginosa 28 by gradient plate test; format: functional
[40] = tested on: Plasmodium berghei; test: Antimalarial activity against chloroquine-resistant Plasmodium berghei assessed as drug resistance; format: functional, organism-based
[41] = tested on: Plasmodium berghei; test: Antimalarial activity against Plasmodium berghei infected in mouse assessed as increase in mean survival days of host at 1.25 mg/kg, sc administered 72 hrs after infection relative to control; format: functional; conditions: route subcutaneous
[42] = tested on: Plasmodium falciparum; test: Antimalarial activity against pyrimethamine-sensitive Plasmodium falciparum Vietnam Oak Knoll infected in Aotus trivirgatus owl monkey model assessed as cure from parasite infection at 0.098 to 1.56 mg/kg, po qd for 7 days relative to control; format: functional; conditions: dose mg/kg 0.098-1.56
[43] = tested on: Plasmodium gallinaceum; test: Antimalarial activity against sporozoite-induced Plasmodium gallinaceum infected in white leghorn chicken assessed as increase in mean survival days of host at 320 mg/kg, sc administered 72 hrs after infection relative to control; format: functional; conditions: route subcutaneous
[44] = tested on: Plasmodium gallinaceum; test: Antimalarial activity against sporozoite-induced Plasmodium gallinaceum infected in white leghorn chicken assessed as disease cure from parasite infection at 160 mg/kg, sc administered 72 hrs after infection; format: functional, organism-based; parameters: dose 160 mg/kg

Nc1nc(N)c2cc(NCc3ccc(Cl)c(Cl)c3)ccc2n1
Activity [1]: Active | Activity [2]: Active | Activity [3]: Active | Activity [4]: Active | Activity [5]: Active | Activity [6]: Active | Activity [7]: Active | Activity [8]: Active | Activity [9]: Active | Activity [10]: Active | Activity [11]: Active | Activity [12]: Active | Activity [13]: Active | Activity [14]: Active

Nc1nc(N)c2cc(Sc3ccc(Cl)cc3)ccc2n1
SD90 [15]: 0.22 mg/kg/day | MIC [16]: 5 µg/mL (≈ 16.5 µM) | MST [17]: 2.5 days | MIC [18]: < 0.25 µg/mL | Ratio [19]: 340 | MST [20]: 25.8 days | Activity [21]: Active | MST [22]: 9.2 days | MST [23]: 9.2 days | Activity [24]: Active | MST [25]: 13.1 days | MST [26]: 17.9 days | MST [27]: 22.2 days | Activity [28]: Active | Activity [3]: Active | Activity [29]: >50% | MST [30]: 16.7 days | Activity [31]: Active | Activity [32]: >50% | Activity [4]: Active | MIC [33]: < 0.25 µg/mL | Activity [5]: Active | Activity [34]: Active | MST [35]: 6 days | Activity [6]: Active | MIC [36]: 1 µg/mL (≈ 3.3 µM) | MIC [37]: < 0.25 µg/mL | Activity [38]: >50% | MIC [39]: > 25 µg/mL | Activity [10]: Active | Activity [40]: inactive | MST [41]: 1.7 days | Activity [42]: >50% | MST [43]: 1.9 days | Activity [44]: Active
